Data published in patent US20200163984A1, “USE OF ISOVALERYL SPIRAMYCIN I, II AND/OR III IN MANUFACTURING MEDICAMENT FOR TREATING AND/OR PREVENTING TUMOR, AND MEDICAMENT” (SHENYANG FUYANG PHARMACEUTICAL TECHNOLOGY CO., LTD., priority 2017, published 2020).
Converted amounts (≈) assume the structure as drawn.

Assays:
[1] = tested on: human promyelocytic leukemia cell HL-60; details: HL-60, MTT, 48 h
Description: (§1) The purpose of the assay is to evaluate the in vitro cell proliferation inhibition or cytotoxic activity of a tested sample.
(§2) U937 and HL-60 were suspension cells, and cells in a logarithmic growth phase were selected and prepared into a 2×10^5/ml cell suspension by a RPMI 1640 culture medium containing 10% fetal bovine serum. And the cell suspension was inoculated in a 96-well culture plate, and each well was 50 μL and the 96-well culture plate was cultured at 37° C. and 5% CO2 for 24 hours. 50 μL of a culture medium containing different concentrations of the tested sample isovaleryl spiramycin I, isovaleryl spiramycin II, or isovaleryl spiramycin III was added in the experimental group, while a culture medium containing the same volume of solvent was added into the control group. Each group was set up with 3 parallel wells that were cultured at 37° C. and 5% CO2 for 48 h. And 10 μL of freshly prepared medium containing 5 mg/ml MTT was added into each well for continuous incubation for 4 hours at 37° C. The crystals were dissolved in 100 μL of a triple solution (SDS 10 g, 10 M HCl 0.1 mL, isobutanol 5 mL, diluted with distilled water to 100 mL), and incubated at 37° C. for 12 hours. The optical density value was measured at 492 nm with a microplate reader.
(§3) The inhibition rate of the medicament on tumor cell growth is calculated according to the following formula:
(§4) Tumor cell growth inhibition rate (%)=[A492 (negative control)−A492 (dosing group)]/A492 (negative control)×100%
(§5) And the half-inhibitory concentration (IC50) of the sample is determined therefrom.

[2] = tested on: human tissue lymphoma cell U937; details: U937, MTT, 48 h
Description: as §1, §2, §3, §4, §5

[3] = tested on: human bladder cancer cell T-24; details: T-24, MTT
Source text: as §1
(§6) Human breast cancer cells MCF-7 and MDA-MB-231, human hepatoma cells HepG2, human non-small cell lung cancer cells A549, human large cell lung cancer cells H460 and H1299, human renal clear cell adenocarcinoma cell 786-0, human renal cell adenocarcinoma cell 769-P, human glioma cell U251, human glioblastoma cell A172, human tissue lymphoma cell U937, human cervical cancer cell HeLa, human prostate cancer cell PC3, human pancreatic cancer cell PANC-1, human esophageal cancer cell TE-1, human gastric adenocarcinoma cell SGC7901, human colon cancer cell HT-29, human promyelocytic leukemia cell HL-60, human thyroid cancer cell TPC-1, and human bladder cancer cell T-24.
as §3, §4, §5

[4] = tested on: human thyroid cancer cell TPC-1; details: TPC-1, MTT
Source text: as §1, §6, §3, §4, §5

[5] = tested on: transplanted tumor of human glioma cell U251; assay: U251 transplanted tumor in nude mice; details: for Tumor Volume (mm3) (d 1): d1
Description: (§7) U251 cells in a logarithmic growth phase were taken and subjected to a trypan blue exclusion experiment showing that the cell viability was more than 95%, then the cells were subjected to trypsinization, centrifugation, and supernatant removal. Then cell concentration was adjusted to 1×10^7/ml with matrigel, then each nude mouse was inoculated subcutaneously with 0.2 ml of cells at its right armpit and recorded as the first day of inoculation. When the tumor grows to be greater than or equal to 100 mm^3, the mice were randomly divided into 11 groups with 6 mice in each group: a model group, a cyclophosphamide group, isovaleryl spiramycin I groups with doses of 25, 50 and 100 mg/kg, isovaleryl spiramycin II groups with doses of 25, 50 and 100 mg/kg, and isovaleryl spiramycin III groups with doses of 25, 50 and 100 mg/kg. Each group was continuously administered intragastrically for 30 days with a dose of 20 ml/kg. The mice were sacrificed the next day after drug withdrawal and the indicators were tested. The long diameter and short diameter of the tumor, and the body weight of each mouse were recorded every 3 days from drug administration to nude mouse sacrifice.
(§8) The body weight of the nude mice and the long diameter (a) and short diameter (b) of the transplanted tumor were measured every 3 days, and the tumor volume (v), relative tumor volume (RTV) and relative tumor proliferation rate (T/C) are calculated respectively according to the following formulas, wherein V=a×b^2/2; RTV=V/V0 (V0 is the tumor volume before administration, V is the tumor volume before sacrifice), and T/C (%)=treatment group RTV/model control group RTV×100%.
(§9) Each mouse was weighed and sacrificed. After the tumor was completely stripped off from the body of the mouse, the non-tumor tissues such as blood stains and fat were removed to weigh the tumor and calculate the tumor growth inhibition rate. The average tumor weight of each group of mice is used as an indicator of efficacy. Tumor growth inhibition rate (%)=(1−the average tumor weight of the treatment group/the average tumor weight of the model group)×100%.

[6] = tested on: transplanted tumor of human gastric adenocarcinoma cell SGC7901; assay: SGC7901 transplanted tumor in nude mice
Description: as §7, with “Then” for “U251 cells in a logarithmic growth phase were taken and subjected to a trypan blue exclusion experiment showing that the cell viability was more than 95%, then the cells were subjected to trypsinization, centrifugation, and supernatant removal. Then”
as §8, §9

[7] = U251, high dose (100 mg/kg in method) i.g. 30 days
[8] = U251, low dose (25 mg/kg in method) i.g. 30 days
[9] = U251, medium dose (50 mg/kg in method) i.g. 30 days
[10] = SGC7901, 12.5 mg/kg (low dose) i.g. 30 days
[11] = SGC7901, 25 mg/kg (medium dose) i.g. 30 days
[12] = SGC7901, 50 mg/kg (high dose) i.g. 30 days

Structure (SMILES): CO[C@@H]1[C@@H](O[C@@H]2O[C@H](C)[C@@H](O[C@H]3C[C@@](C)(O)[C@@H](OC(=O)CC(C)C)[C@H](C)O3)[C@H](N(C)C)[C@H]2O)[C@@H](CC=O)C[C@@H](C)[C@@H](O[C@H]2CC[C@H](N(C)C)[C@@H](C)O2)/C=C/C=C/C[C@@H](C)OC(=O)C[C@H]1O [Isovaleryl spiramycin I, isovaleryl spiramycin I]
- IC50 [1]: 16.52 ± 1.26 µg/mL (≈ 17.8 µM)
- IC50 [2]: 10.88 ± 0.05 µg/mL (≈ 11.7 µM)
- IC50 [3]: 18.68 ± 0.58 µg/mL (≈ 20.1 µM)
- IC50 [4]: 19.97 ± 1.93 µg/mL (≈ 21.5 µM)
- Relative Tumor Proliferation Rate (T/C) [5, 7]: 25.80%
- tumor growth inhibition rate [5, 7]: 69.21%
- Relative Tumor Proliferation Rate (T/C) [5, 8]: 76.40%
- tumor growth inhibition rate [5, 8]: 30.94%
- tumor volume and relative tumor volume compared with the model group ([5]; U251, low, medium and high doses, P<0.05): significantly lower
- Relative Tumor Proliferation Rate (T/C) [5, 9]: 44.54%
- tumor growth inhibition rate [5, 9]: 44.53%
- Inhibition Rate (%) ([5]; U251 nude mice, 25 mg/kg): 30.94%
- Relative Tumor Proliferation Rate (T/C) ([5]; U251 nude mice, 25 mg/kg): 76.40%
- Relative Tumor Volume (RTV) ([5]; U251 nude mice, 25 mg/kg): 12.69 ± 1.08
- Tumor Weight ([5]; U251 nude mice, 25 mg/kg): 0.96 ± 0.08 g
- Tumor Volume (mm3) (d 1) ([5]; U251 nude mice, 25 mg/kg): 122.81 ± 10.35 mm3
- Tumor Volume (mm3) (d30) ([5]; U251 nude mice, 25 mg/kg): 1550.33 ± 72.99 mm3
- Inhibition Rate (%) ([5]; U251 nude mice, 50 mg/kg): 44.53%
- Relative Tumor Proliferation Rate (T/C) ([5]; U251 nude mice, 50 mg/kg): 44.54%
- Relative Tumor Volume (RTV) ([5]; U251 nude mice, 50 mg/kg): 10.67 ± 1.09
- Tumor Weight ([5]; U251 nude mice, 50 mg/kg): 0.77 ± 0.09 g
- Tumor Volume (mm3) (d 1) ([5]; U251 nude mice, 50 mg/kg): 124.39 ± 10.31 mm3
- Tumor Volume (mm3) (d30) ([5]; U251 nude mice, 50 mg/kg): 930.42 ± 204.72 mm3
- Inhibition Rate (%) ([5]; U251 nude mice, 100 mg/kg): 69.21%
- Relative Tumor Proliferation Rate (T/C) ([5]; U251 nude mice, 100 mg/kg): 25.80%
- Relative Tumor Volume (RTV) ([5]; U251 nude mice, 100 mg/kg): 10.05 ± 0.71
- Tumor Weight ([5]; U251 nude mice, 100 mg/kg): 0.43 ± 0.01 g
- Tumor Volume (mm3) (d 1) ([5]; U251 nude mice, 100 mg/kg): 124.88 ± 6.57 mm3
- Tumor Volume (mm3) (d30) ([5]; U251 nude mice, 100 mg/kg): 537.02 ± 93.66 mm3
- mouse weight compared with the model group ([5]; mouse, in vivo): no significant changes
- Body Weight (g) (d1) ([5]; mouse, in vivo, 25 mg/kg): 21.03 ± 0.55 g
- Body Weight (g) (d30) ([5]; mouse, in vivo, 25 mg/kg): 21.09 ± 0.53 g
- Body Weight (g) (d1) ([5]; mouse, in vivo, 50 mg/kg): 20.78 ± 0.66 g
- Body Weight (g) (d30) ([5]; mouse, in vivo, 50 mg/kg): 21.08 ± 0.54 g
- Body Weight (g) (d1) ([5]; mouse, in vivo, 100 mg/kg): 21.10 ± 0.35 g
- Body Weight (g) (d30) ([5]; mouse, in vivo, 100 mg/kg): 20.86 ± 0.66 g
- Inhibition Rate (tumor growth inhibition rate) [6, 10]: 31.56%
- Relative Tumor Proliferation Rate (T/C) [6, 10]: 61.13%
- Relative Tumor Volume (RTV) [6, 10]: 5.37 ± 3.46
- Tumor Volume (d 1) [6, 10]: 412.96 ± 157.62 mm3
- Tumor Volume (d 30) [6, 10]: 2815.50 ± 770.23 mm3
- Tumor Weight [6, 10]: 1.07 ± 0.53 g
- Inhibition Rate (tumor growth inhibition rate) [6, 11]: 53.13%
- Relative Tumor Proliferation Rate (T/C) [6, 11]: 42.67%
- Relative Tumor Volume (RTV) [6, 11]: 3.98 ± 2.78
- Tumor Volume (d 1) [6, 11]: 258.63 ± 104.26 mm3
- Tumor Volume (d 30) [6, 11]: 1230.76 ± 635.23 mm3
- Tumor Weight [6, 11]: 0.74 ± 0.52 g
- Inhibition Rate (tumor growth inhibition rate) [6, 12]: 70.78%
- Relative Tumor Proliferation Rate (T/C) [6, 12]: 20.23%
- Relative Tumor Volume (RTV) [6, 12]: 3.64 ± 1.65
- Tumor Volume (d 1) [6, 12]: 279.56 ± 156.70 mm3
- Tumor Volume (d 30) [6, 12]: 630.69 ± 458.86 mm3
- Tumor Weight [6, 12]: 0.46 ± 0.36 g
- tumor volume and relative tumor volume compared with the model group ([6]; SGC7901, low, medium and high doses, P<0.05): significantly lower
- mouse weight compared with the model group ([6]; mouse, in vivo): no significant changes
